Tested on: ammonia lateralization threshold
Assay: Panel evaluation of the lateralization threshold (LT) of ammonia alone and in combination with a PRM
Assay type: in vivo, panellists
Set-up: LT of ammonia Panellist 1 Cond II / LT of ammonia Panellist 2 Cond II / LT of ammonia Panellist 3 Cond II: unit not given here
Settings: for LT of ammonia Panellist 1 Cond II / LT of ammonia Panellist 2 Cond II / LT of ammonia Panellist 3 Cond II / LT of ammonia Panellist 1 %Δ / LT of ammonia Panellist 2 %Δ / LT of ammonia Panellist 3 %Δ: Table 4; for LT of ammonia Panellist 1 Cond II / LT of ammonia Panellist 2 Cond II / LT of ammonia Panellist 3 Cond II: ammonia stimulus combined with PRM stimulus; for LT of ammonia Panellist 1 %Δ / LT of ammonia Panellist 2 %Δ / LT of ammonia Panellist 3 %Δ / Ammonia LT Panellist 1 % Δ / Ammonia LT Panellist 2 % Δ / Ammonia LT Panellist 3 % Δ: change of ammonia LT, Cond II (with PRM) vs Cond I (ammonia alone); for Ammonia LT Panellist 1 Cond II / Ammonia LT Panellist 2 Cond II / Ammonia LT Panellist 3 Cond II / Ammonia LT Panellist 1 % Δ / Ammonia LT Panellist 2 % Δ / Ammonia LT Panellist 3 % Δ: Table 3; for Ammonia LT Panellist 1 Cond II / Ammonia LT Panellist 2 Cond II / Ammonia LT Panellist 3 Cond II: ammonia stimulus combined with PRM stimulus (concentration of Table 2 in propylene glycol)
Protocol: An ammonia stimulus test range was prepared. To ensure a stable level of ammonia in each stimulus, the ammonia headspace was stabilized by combining appropriate concentrations of NH4Cl, NaOH and H2O instead of simply adding ammonia directly to a solvent. Different concentrations of ammonia were used to create a stimulus test range by utilizing the appropriate amount of each compound (see Table 1).
A stimulus was also prepared for each PRM which was intended to be combined with ammonia stimuli. As the PRMs differed in their potency and to ensure that each PRM stimulus had approximately the same potency, an abbreviated dose response curve was constructed for each PRM by having four panellists evaluate the intensity of five concentration levels of the PRM dissolved in propylene glycol in duplicate. Assessments were made relative to the reference of 170 ppm allyl heptanoate in propylene glycol, which intensity was set to 0. Based upon the average scores, a rough intensity match was made for each PRM utilizing one of the following criteria. If one of the tested concentration levels averaged at or near zero, this concentration level was selected. If the rating created any sort of reasonable curve, the equation of the curve was determined and solved for 0 to arrive at the PRM assessment level. If multiple concentration levels were equally distant form the match level, then the standard deviation across individuals was considered, as were the individual responses. In general, the PRM level was selected to be on average close to 0 with low variability, with two panellists saying the level was a bit too high and the other two panellists saying the level was a bit too low. The PRMs for which a stimulus was prepared are listed in Table 2 below, together with the concentration of the PRM in the stimulus.
Volunteers were screened for their ability to lateralize ammonia stimuli. For the screening, the experimenter measured the participant's lateralization threshold for ammonia using a two-alternative forced choice modified staircase procedure employing a four-in, two-down, one-up rule with a five reversal criterion, as described below, On each trial volunteers were presented with a pair of glass bottles with clean, custom-made nose pieces. One bottle contained ammonia at a particular level selected from Table 1 and the other bottle contained water only. Each bottle was applied to one nostril using the nose piece. The volunteers were asked to identify which bottle in each pair contained ammonia.
If the ammonia stimulus was correctly identified in four consecutive trials, the concentration was decreased by one level of Table 1 on the next trial. If an incorrect answer was provided, the concentration was increased by one level of Table 1. Location (left or right nostril) of the stimulus was randomized over presentations. Testing continued until one of the following occurred: • 1) Five reversals (correct decision followed by an incorrect decision or vice versa) were achieved; • 2) The volunteer gave a correct response twice in a row at the lowest level of Table 1; or • 3) The volunteer gave an incorrect response at the highest level of Table 1.
In the first circumstance, threshold values were then calculated by averaging the last four reversals. In the second circumstance, the LT was the lowest level. In the third circumstance, the LT could not be calculated. Volunteers were considered qualified to participate in the panel evaluation if their LT could be calculated (Circumstance 1).
The LT of ammonia, both alone and in combination with diverse PRM, was determined. A repeated-measures design was used, such that the LT with and without the addition of a PRM were both measured at the same time in one person by utilizing interwoven stimuli presentations. The LT for each PRM was measured by two to three panellists, the third panellists being included if the results of the first to panellists disagreed. […]

Compound | LT of ammonia Panellist 1 Cond II | LT of ammonia Panellist 2 Cond II | LT of ammonia Panellist 3 Cond II | LT of ammonia Panellist 1 %Δ [%] | LT of ammonia Panellist 2 %Δ [%] | LT of ammonia Panellist 3 %Δ [%] | Ammonia LT Panellist 1 Cond II [ppm] | Ammonia LT Panellist 2 Cond II [ppm] | Ammonia LT Panellist 3 Cond II [ppm] | Ammonia LT Panellist 1 % Δ [%] | Ammonia LT Panellist 2 % Δ [%] | Ammonia LT Panellist 3 % Δ [%]
CCOC(=O)C(=O)C(C)CC (stereo not shown) [Ethyl 3-methyl-2-oxopentanoate] | 0.6 | 0.6 | 0.6 | 417 | 786 | 210 |  |  |  |  |  | 
CCOC(=O)C(C)CC (stereo not shown) [Ethyl 2-methylbutanoate] | 19.6 | 11.1 | 11.1 | 214 | 213 | 77 |  |  |  |  |  | 
CCCOC(=O)[C@H](C)OC(C)(C)CC [Sclareolate ®, Propyl (S)-2-(1,1-dimethylpropoxy)propanoate] | 1.1 | 1.1 | 0.6 | 465 | 223 | −2 |  |  |  |  |  | 
CCCCC[C@@H]1C(=O)CC[C@@H]1CC(=O)OC [Paradisone ®, (+)-Methyl (1R)-cis-3-oxo-2-pentyl-1-cyclopentaneacetate] |  |  |  |  |  |  | 22.9 | 225.5 | 6.1 | 0 | 214 | −73
C=CCOC(=O)CCCCCC [Allyl heptanoate] |  |  |  |  |  |  | 71.9 | 225.5 |  | 28 | 20 | 
CCCCOC(C)=O [Butyl acetate] |  |  |  |  |  |  | 7.3 | 225.5 |  | 213 | 1079 | 
CC(C=O)Cc1ccc(C(C)(C)C)cc1 (stereo not shown) [Lilial ®, 3-(4-Tert-butylphenyl)-2-methylpropanal] |  |  |  |  |  |  | 22.9 | 7.3 | 19.1 | 300 | −96 | 0
CCC/C(C)=C\COC(C)=O [Aladinate ®, (Z)-3-methyl-2-hexenyl acetate] |  |  |  |  |  |  | 19.1 | 71.9 |  | −16 | 0 | 
C[C@@H]1CC[C@H]2[C@H](C)C(=O)O[C@@H]2C1 [(+)-(3S,3AS,6R,7AR)-perhydro-3,6-dimethyl-benzo[B]furan-2-one] | 19.6 | 3.5 | 11.1 | 885 | 4929 | 1682 |  |  |  |  |  | 
CCCC(=O)OCC(C)C [Isopropylmethyl butyrate] |  |  |  |  |  |  | 188.4 | 188.3 |  | 81809 | 235 | 
CC=CC(=O)C1=C(C)CCCC1(C)C [Beta Dorinone ®, 1-(2,6,6-trimethyl-1-cyclohexen-1-yl)-2-buten-1-one] | 11.1 | 19.6 | 2.0 | 214 | 885 | 1558 |  |  |  |  |  | 
CCC=CCC=C/C=C/C(=O)OCC [Ethyl (2E)-2,4,7-decatrienoate] | 1.1 | 2.0 | 2.0 | 223 | 469 | 2743 |  |  |  |  |  | 
CC(C)=CCC[C@](C)(O)[C@@H]1CC=C(C)CC1 [Alpha-bisabolol] |  |  |  |  |  |  | 7.3 | 172.7 |  | 213 | 655 | 
CC1(C)CCCC2(C)C1CCC1(C)OCCC12 (stereo not shown) [Cetalox ®, Dodecahydro-3a,6,6,9a-tetramethyl-naphtho[2,1-b]furan] |  |  |  |  |  |  | 2.3 | 225.5 | 2.3 | −90 | 2988 | −68
CCCc1ccc(OC)cc1 [Dihydroestragole] |  |  |  |  |  |  | 7.3 | 71.9 | 22.9 | −62 | 28 | 214
C=C1CCCC(C)(C)C1C(=O)OC (stereo not shown) [Romascone ®, Methyl 2,2-dimethyl-6-methylene-1-cyclohexanecarboxylate] | 11.1 | 2.0 | 6.3 | 1685 | 77 | 1686 |  |  |  |  |  | 
CC1C(=O)O[C@H]2C[C@@H](C)CC[C@H]12 (mixture of isomers) [Koumalactone ®, (3aRS,6SR,7aSR)-perhydro-3,6-dimethyl-benzo[B]furan-2-one] |  |  |  |  |  |  | 19.1 | 71.9 |  | 162 | 214 | 
CC(C)CC1CC(C)(O)CCO1 (stereo not shown) [Florol ®, Tetrahydro-2-isobutyl-4-methyl-4(2H)-pyranol] |  |  |  |  |  |  | 56.3 | 7.3 | 22.9 | 146 | −62 | 0
CC(C)=CCCC(C)CCO (stereo not shown) [Citronellol] |  |  |  |  |  |  | 60.0 | 225.5 |  | 2978 | 20 | 
